Assay results: patent publication US8143254B2, “Methods for modulating ion channels” (Cornell Research Foundation, Inc., priority 2005, dated 2012)

Target: T1, Kv2.1 channels expressed in CHO cells (Rattus norvegicus, UniProt P15387)
T1 construct: expressed in transfected cells; host or cells: CHO cells (transient, co-transfected with GFP plasmid)
T1 sequence (P15387 1-857): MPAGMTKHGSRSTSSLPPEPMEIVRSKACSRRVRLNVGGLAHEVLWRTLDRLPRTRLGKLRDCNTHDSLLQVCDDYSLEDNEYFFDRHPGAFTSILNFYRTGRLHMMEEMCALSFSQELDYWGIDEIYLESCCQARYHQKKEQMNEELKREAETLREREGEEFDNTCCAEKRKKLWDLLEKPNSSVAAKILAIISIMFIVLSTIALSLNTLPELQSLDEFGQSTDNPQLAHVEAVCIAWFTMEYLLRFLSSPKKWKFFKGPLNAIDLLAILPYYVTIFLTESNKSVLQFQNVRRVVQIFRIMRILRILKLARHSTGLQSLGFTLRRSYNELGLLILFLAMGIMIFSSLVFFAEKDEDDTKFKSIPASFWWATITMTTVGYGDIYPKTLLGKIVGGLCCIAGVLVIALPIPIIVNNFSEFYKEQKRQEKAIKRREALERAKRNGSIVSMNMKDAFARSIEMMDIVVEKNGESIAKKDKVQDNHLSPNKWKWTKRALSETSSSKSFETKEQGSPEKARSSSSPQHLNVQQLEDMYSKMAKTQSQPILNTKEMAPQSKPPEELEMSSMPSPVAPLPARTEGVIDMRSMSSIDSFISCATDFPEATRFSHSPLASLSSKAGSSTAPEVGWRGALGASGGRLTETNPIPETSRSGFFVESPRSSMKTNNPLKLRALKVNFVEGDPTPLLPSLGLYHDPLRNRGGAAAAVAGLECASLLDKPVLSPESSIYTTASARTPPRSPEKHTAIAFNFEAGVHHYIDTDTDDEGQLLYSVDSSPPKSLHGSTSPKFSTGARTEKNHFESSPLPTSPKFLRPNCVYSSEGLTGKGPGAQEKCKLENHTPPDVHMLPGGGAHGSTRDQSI
Assay: Whole-cell voltage clamp of CHO cells transfected with Kv2.1
Type: cell-based
From the text: Kv2.1 mutants were constructed using the QuickChange Multi Site-Directed Mutagenesis Kit (Stratagene, La Jolla, Calif.). Mutant Kv2.1 genes (in the pGA1 oocyte expression vector for oocyte expression) were sequenced in their entirety to confirm appropriate mutations and check for inadvertent mutations, and then subcloned into a wild-type pGA1 backbone. For oocyte expression, Kv3.4 was in pBF1, Kv4.2 was in pRAT. cRNA transcripts were produced from SacII-linearized (Kv2.1), Mlullinearized (Kv3.4) and Not1-linearized (Kv4.2) DNA templates using the T3 (Kv2.1), SP6 (Kv3.4) and T7 (Kv4.2) mMessage mMachine kits (Ambion, Austin, Tex.). cRNA was quantified by spectrophotometry and its size integrity verified by gel electophoresis. Defolliculated stage V and VI Xenopus laevis oocytes (purchased from Nasco, Grand Island, N.Y.) were injected with 5 ng of cRNA encoding Kv2.1, Kv3.4 or Kv4.2. Chinese Hamster Ovary (CHO) cells were transfected with 0.25 μg Kv2.1 cDNA, 2 μg blank plasmid and 2 μg Green fluorescent Protein in pBOB using Supetfect transfection reagent (Qiagen) 24 hours before whole-cell voltage clamp studies.
For whole-cell voltage clamp studies of CHO cells, bath solution was (in mM): 135 NaCl, 5 KCl, 1.2 MgCl2, 5 HEPES, 2.5 CaCl2, and 10 D-glucose, pH 7.4. Pipettes were 3-5 MQ resistance when filled with intracellular solution containing (in mM): 10 NaCl, 117 KCl, 2 MgCl2, 11 HEPES, 11 EGTA, and 1 CaCl2, pH 7.2. For experiments with extracellular drug application, cells were held at −80 mV and subjected to 2 sec test pulses […] every 30 s. Whole-cell patch clamp recordings were performed at 22-25° C. using an IX50 inverted microscope equipped with epifluorescence optics for GFP detection (Olympus), a Multiclamp 700 A Amplifier, a Digidata 1300 Analogue/Digital converter and pClamp9 software (Axon Instruments). Leak and liquid junction potentials (<4 mV) were not compensated for when generating current-voltage relationships. For intracellular drug application, the tip of the recording electrode was first filled with drug-free intracellular solution, the electrode was then back-filled with intracellular solution containing TEA (20 mM), TA279 (5 mM) or JC638.2α (0.5 mM). Cells were held at −80 mV and subjected to 2 sec test pulses from −60 mV to +60 mV in 10 mV increments, followed by a 1 sec tail pulse to −30 mV. After an initial recording which we denoted time 0, a second recording was performed after 5 minutes.
Data analysis: Current-voltage relationships were obtained by measuring peak current during depolarizing pulses. Inhibition constants for DABCO blockers were calculated after generating a dose response curve by fitting with a logistic dose-response function y=A2+[A1−A2/1+(x/x0)^p], where A1 is the maximum response plateau, A2 is the minimum response plateau, x is drug concentrator, x0 is the IC50, and p the Hill slope. Data analysis was performed using CLAMPFIT 9 (Axon Instruments, Foster City, Calif.) and tabulated in Excel 5.0. Graphs were generated using Origin 6.1. Data are expressed as mean±SEM, with n specifying the number of independent experiments. Statistical significance was assessed by one-way ANOVA with p<0.05 being indicative of significance.

SMILES | block on intracellular application (0.5 mM via recording electrode, 0 mV) | sensitivity of Kv2.1 in CHO cells relative to Kv2.1 in oocytes [fold] | block on intracellular application (5 μM via recording electrode, 0 mV, at 0 or 5 minutes) | inhibition at 0.5 µM (CHO, extracellular application, 500 nM, 0 mV, n=3, read-out: mean current inhibition) [%]
c1cc(C[N+]23CCN(CC2)CC3)ccc1C[N+]12CCN(CC1)CC2 [JC638.2α, α,α′-[bis(4-aza-1-azoniabicyclo[2.2.2]octanyl)]p-xylene] | no significant block |  |  | 
CCCCCCCCCCCCCCCC[N+]12CCN(CC1)CC2 [TA279, 1-aza-4-azonia-4-hexadecylbicyclo[2.2.2]octane] |  | ~4 | no significant block | 59 ± 4
